Experimental findings from PubChem BioAssay (NCI) are described below.

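Interpolation was linear, between the two tested concentrations surrounding the appropriate level; five concentrations were tested over 48 hours in 96-well plates. TGI marks complete inhibition of growth.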 A value given as a limit tells only on which side of the number the result lay.

Test systems include NCI-H23 lung; A549 NSCLC; CCRF-CEM leukemia; OVCAR-3 ovarian; ACHN renal; KM12 colon; LOX IMVI melanoma; OVCAR-5 ovarian; SN12C renal; SR leukemia; PC-3 prostate; MDA-N.
Common to all, as to assay: NCI anticancer screen, dose series, 48 h

As for `CC(=O)OC1/C=C(\C)C(OC(C)=O)C/C=C(/C)CCC2C(/C=C/C1=O)C2(C)C` (stereo not given), the TGI in the assay on NCI-H23 lung, in the assay with A549 NSCLC, in the assay with CCRF-CEM leukemia, with OVCAR-3 ovarian, in the assay with ACHN renal and in the assay with KM12 colon was more than 100 µM in each case. Also, the TGI in the assay with LOX IMVI melanoma, in the assay with OVCAR-5 ovarian and with SN12C renal was more than 100 µM in each case.

Take `COc1cc(C2C3C=CC=C4CC=CC(=C43)C3CCC(=O)N32)cc(OC)c1OC` (stereo not given): the TGI in the assay on SR leukemia, with A549 NSCLC, with OVCAR-3 ovarian, in the assay on ACHN renal, in the assay on KM12 colon and in the assay with LOX IMVI melanoma was more than 100 µM throughout. The TGI with OVCAR-5 ovarian, with SN12C renal and with PC-3 prostate was more than 100 µM throughout.

As for `O=C(O)CCCc1nc2c(n1Cc1ccccc1)C(=O)c1ccccc1C2=O`, the TGI was more than 100 µM with SR leukemia; more than 100 µM with NCI-H23 lung; more than 100 µM in the assay on A549 NSCLC; 43.8 µM in the assay on CCRF-CEM leukemia; 74.7 µM with OVCAR-3 ovarian; more than 100 µM with ACHN renal. Further, the TGI is 67.1 µM with MDA-N; more than 100 µM in the assay with KM12 colon; more than 100 µM with LOX IMVI melanoma; more than 100 µM with OVCAR-5 ovarian; more than 100 µM in the assay with SN12C renal.

Turning to `C[C@H]1[C@H]2[C@H]3CC[C@@H]4[C@@]5(C)CC[C@H](O)C(C)(C)[C@@H]5CC[C@@]4(C)[C@]3(C)C[C@H](O)[C@@]2(C)C[C@H]2O[C@]21C`, the TGI with NCI-H23 lung is 40.3 µM; in the assay with A549 NSCLC, 41.7 µM; in the assay with CCRF-CEM leukemia it was more than 100 µM; in the assay with OVCAR-3 ovarian it was 36.4 µM; in the assay on ACHN renal it was 31.1 µM; in the assay on MDA-N it was 46.5 µM. The TGI stood at 46.1 µM in the assay with KM12 colon; 39.1 µM with LOX IMVI melanoma; 58.4 µM in the assay with OVCAR-5 ovarian; 37.8 µM in the assay with SN12C renal; 27.1 µM in the assay on PC-3 prostate.

Consider `CCN(CC)CCNc1ccc2nnn3c4ccc(OCCN(CC)CC)cc4c(=O)c1c23`, for which the TGI in the assay on SR leukemia was 45.4 µM; in the assay on NCI-H23 lung, more than 100 µM; in the assay on A549 NSCLC it was more than 100 µM; in the assay with CCRF-CEM leukemia it was 49 µM; in the assay on ACHN renal it was more than 100 µM; in the assay with MDA-N, more than 100 µM. Moreover, the results for the TGI with KM12 colon, in the assay on OVCAR-5 ovarian and in the assay with SN12C renal were 84.5 µM, more than 100 µM and more than 100 µM, respectively.

Consider `N#Cc1n[nH]n(-c2ccc(Br)cc2)c1=O`, for which the TGI with NCI-H23 lung, in the assay on A549 NSCLC, in the assay with CCRF-CEM leukemia, in the assay on OVCAR-3 ovarian, in the assay with ACHN renal and in the assay on MDA-N was more than 100 µM in each case. Besides, the TGI with KM12 colon, in the assay on LOX IMVI melanoma, in the assay on OVCAR-5 ovarian, in the assay on SN12C renal and in the assay with PC-3 prostate was more than 100 µM throughout.

With `O=C(O)C(O)C(O)C(O)C(O)c1nc2ccccc2s1` (stereo not given), the TGI in the assay with NCI-H23 lung was 66.1 µM; with A549 NSCLC, 39.3 µM; in the assay with CCRF-CEM leukemia, more than 100 µM; with OVCAR-3 ovarian, 31.4 µM; with ACHN renal it was 33.2 µM; in the assay on MDA-N, 33.2 µM. The TGI with KM12 colon was 71.1 µM; with LOX IMVI melanoma, 36.7 µM; with OVCAR-5 ovarian, 72.9 µM; in the assay on SN12C renal, 34.8 µM; in the assay with PC-3 prostate, 30 µM.

Consider `O=c1sc2ccccc2n1CC1CS1` (stereo not given), for which the TGI in the assay on SR leukemia, with A549 NSCLC, in the assay on CCRF-CEM leukemia, in the assay on OVCAR-3 ovarian, in the assay with ACHN renal and in the assay with KM12 colon was more than 100 µM each time. For the same compound, the TGI in the assay with LOX IMVI melanoma, in the assay on OVCAR-5 ovarian and in the assay with SN12C renal was more than 100 µM throughout.

As for `COc1cc2c(cc1OC)C(CC1=C(c3ccccc3)CN3CCc4cc(OC)c(OC)cc4C3C1)NCC2` (stereo not given), the TGI with NCI-H23 lung was determined as 52.8 µM; with A549 NSCLC it was 33.5 µM; in the assay with CCRF-CEM leukemia it was 37.6 µM; in the assay with OVCAR-3 ovarian, 34.8 µM; with ACHN renal, 42.3 µM; in the assay on KM12 colon it was 39.1 µM. Moreover, the values for the TGI with LOX IMVI melanoma, with OVCAR-5 ovarian and in the assay on SN12C renal were 33.6 µM, 35.4 µM and 37 µM, respectively.

Turning to `C[n+]1c2ccc(Cl)cc2nc2cc(-c3ccccc3)ccc21`, the TGI with SR leukemia is 9.14 µM; in the assay with NCI-H23 lung, 23.2 µM; with A549 NSCLC it was 47.7 µM; with CCRF-CEM leukemia it was more than 100 µM; in the assay with OVCAR-3 ovarian it was 6.44 µM; in the assay on ACHN renal, 39.7 µM. Besides, the TGI in the assay on KM12 colon is 33.7 µM; in the assay on LOX IMVI melanoma, more than 100 µM; in the assay on OVCAR-5 ovarian, 55.5 µM; in the assay with SN12C renal, 25.1 µM; in the assay with PC-3 prostate it was 47.3 µM.

Turning to `c1ccc(N=C(N2CCCC2)N(CCN2CCCC2)c2ccccc2)cc1`, the TGI with SR leukemia, in the assay with NCI-H23 lung, in the assay on A549 NSCLC, in the assay on CCRF-CEM leukemia, in the assay with OVCAR-3 ovarian and in the assay with ACHN renal was more than 100 µM each time. The TGI in the assay on KM12 colon is 41.7 µM; with LOX IMVI melanoma, more than 100 µM; in the assay with OVCAR-5 ovarian it was more than 100 µM; in the assay on SN12C renal, more than 100 µM; in the assay with PC-3 prostate it was more than 100 µM.

Take `Cc1ccc(-c2c(C#N)c(-c3ccc(C)cc3)n(NS(=O)(=O)c3ccccc3)c(=O)c2C#N)cc1`: the TGI in the assay on A549 NSCLC is more than 100 µM; in the assay with CCRF-CEM leukemia, 77.7 µM; in the assay on ACHN renal, more than 100 µM; in the assay with KM12 colon, more than 100 µM; in the assay with LOX IMVI melanoma, more than 100 µM; with OVCAR-5 ovarian, more than 100 µM. Also, the TGI in the assay with SN12C renal and in the assay on PC-3 prostate was more than 100 µM throughout.

For `O=C(Nc1ccccc1)c1cc(S(=O)(=O)NC2=NC(c3ccccc3)c3cc(Cl)ccc3N2)c(SSc2cc(Cl)c(C(=O)Nc3ccccc3)cc2S(=O)(=O)NC2=NC(c3ccccc3)c3cc(Cl)ccc3N2)cc1Cl` (stereo not given), the TGI was more than 26.7 µM with SR leukemia; more than 100 µM in the assay on NCI-H23 lung; more than 100 µM in the assay on A549 NSCLC; more than 100 µM in the assay with OVCAR-3 ovarian; more than 100 µM with ACHN renal; more than 100 µM in the assay on MDA-N. Also, the TGI in the assay on KM12 colon, with LOX IMVI melanoma, in the assay with OVCAR-5 ovarian, with SN12C renal and in the assay on PC-3 prostate was more than 100 µM in each case.
